{
  "source": "patent US9592226B2",
  "about": "“Solenopsin and derivatives, therapeutic compositions; and methods related thereto” (priority 2013, dated 2017)",
  "key": {"PDK1": {"target": "T1, PDK1 (Homo sapiens, UniProt O15530)", "T1 construct": "PARE was generated by sandwiching full-length PDK1 between a fluorescent protein pair (FRET pair), ECFP and citrine; expressed in transfected cells; host or cells: NIH3T3", "T1 sequence (O15530 1-556)": "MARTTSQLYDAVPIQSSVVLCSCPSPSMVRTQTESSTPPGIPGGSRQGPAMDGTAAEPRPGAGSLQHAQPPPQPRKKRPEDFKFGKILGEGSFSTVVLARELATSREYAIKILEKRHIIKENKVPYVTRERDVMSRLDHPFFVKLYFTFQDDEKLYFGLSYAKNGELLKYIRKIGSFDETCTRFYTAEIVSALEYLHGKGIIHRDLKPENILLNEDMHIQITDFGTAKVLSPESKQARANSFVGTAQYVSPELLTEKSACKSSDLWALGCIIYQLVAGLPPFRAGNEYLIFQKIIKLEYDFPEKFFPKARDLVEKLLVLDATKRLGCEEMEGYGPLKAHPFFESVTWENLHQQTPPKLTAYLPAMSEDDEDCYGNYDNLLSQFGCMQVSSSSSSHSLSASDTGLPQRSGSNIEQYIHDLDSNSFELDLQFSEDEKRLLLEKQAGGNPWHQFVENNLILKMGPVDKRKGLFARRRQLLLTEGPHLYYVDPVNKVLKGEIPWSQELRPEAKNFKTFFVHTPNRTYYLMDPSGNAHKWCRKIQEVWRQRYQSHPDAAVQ", "test": "FRET biosensor Lyn-PARE, PDK1 activation in membrane rafts of NIH3T3 cells", "format": "cell-based, murine", "conditions": "10 μM, 1 h", "description": "(§1) In order to determine whether solenopsin A and analogs have similar modes of action to ceramide, a series of fluorescent biosensors were employed for the PI3K/Akt pathway. […] No significant inhibition could be seen for any of the other solenopsin analogs (FIG. 4).\n(§2) PARE was generated by sandwiching full-length PDK1 between a fluorescent protein pair (FRET pair), ECFP and citrine, and a motif generated from the Lyn-kinase gene was added to the 5′-end to target the construct to raft microdomains. AktAR was generated by a fluorescent protein pair, cerulean and cpVE172, sandwiching a forkhead-associated binding domain (FHA1) and an Akt substrate domain (FOXO). PH(Akt)-citrine was constructed by attaching the yellow fluorescent protein (citrine) to the C-terminus of PH domain of Akt1, therefore the translocation of Akt PH domain can be detected by increase of yellow fluorescence at plasma membrane.\n(§3) NIH3T3 cells were plated and grown to 40% confluency. […] The data was analyzed with Metafluor 6.2 software (Universal Imaging, Downingtown, Pa.). Cell regions were selected and fluorescence images were background-corrected by deducting the background (regions with no cells) from the emission intensities of CFP or YFP. […] For analysis of PH (Akt) domain translocation (PH(Akt)-citrine), the ratio of intensities of citrine at cell membrane and cytosol were calculated after background correction. […]"}, "Akt": {"tested_on": "Akt", "test": "FRET biosensor AktAR, Akt activity in NIH3T3 cells", "format": "cell-based, murine", "conditions": "10 μM, 1 h", "description": "as §1, §2, §3"}, "PH domain of Akt1": {"target": "T2, PH domain of Akt1 (Homo sapiens, UniProt P31749)", "T2 construct": "attaching the yellow fluorescent protein (citrine) to the C-terminus of PH domain of Akt1; expressed in transfected cells; host or cells: NIH3T3", "T2 sequence (P31749 5-108 limits assumed)": "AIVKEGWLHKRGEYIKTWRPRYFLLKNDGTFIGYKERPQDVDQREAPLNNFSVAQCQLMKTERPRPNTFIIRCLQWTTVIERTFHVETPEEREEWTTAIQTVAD", "test": "PH(Akt)-citrine, Akt translocation in NIH3T3 cells", "format": "cell-based, murine", "conditions": "10 μM, 1 h", "description": "as §1, §2, §3"}, "UM-SCC1A cells": {"tested_on": "UM-SCC1A cells", "test": "Oxygen consumption rate (Seahorse) in UM-SCC1A cells", "format": "cell-based, human", "conditions": "10 μM, 24 h", "description": "UM-SCC1A cells were plated 15,000/well and treated for 24 h with 10 μM of (+)-solenopsin A ((+) Sol. A), (−)-solenopsin A ((−) Sol. A), and solenopsin analogs S11-S15. Oxygen consumption rate (OCR) was measured as pmoles O2/minute using a Seahorse Biosciences instrument. Data shown are an average of three experiments±s.d.\nAt least not in Braf mutated cell lines, such as A375 and A2058. One possibility is that solenopsin, like ceramide, may also localize to mitochondria, and cause mitochondrial induced cell death. Cellular oxygen consumption rate can be indicative of mitochondrial function. Therefore, to investigate if solenopsin A and analogs do alter mitochondrial function, UM-SCC1A (human head and neck SCC) cells were then treated with 10 μM compound or the equivalent amount of DMSO and incubated for 24 hours. A SeaHorse Bioscience instrument was used to measure the oxygen consumption rate (OCR). […] Mitophagy can be one reason for decreased OCR, but further assays are needed to confirm the cause for the observed differences.\nUM-SCC1A cells were plated 15,000 per well in 200 μl DMEM supplemented with 10% FBS and 1% penicillin-streptomycin in each well of a 96-well Seahorse plate and incubated overnight at 37° C. with 5% CO2. Cells were then treated with 10 μM compound or the equivalent amount of DMSO and incubated for 24 hours. OCR was measured as pmoles O2/minute using the Seahorse Biociences instrument per manufacturer's instructions. Protein amounts in each well were then quantified using the Thermo Scientific Pierce Protein Assay, per manufacturer's instructions."}, "A375 cells": {"tested_on": "A375 cells", "test": "Superoxide (ROS) by DHE fluorescence, A375 cells", "format": "cell-based, human", "conditions": "10 μM, 24 h", "description": "Cells were treated for 24 h with 10 μM of (+)-solenopsin A ((+) Sol. A), (−)-solenopsin A ((−) Sol. A), and solenopsin analogs S11-S15. Cells were trypsined and incubated for 10 min in 10 μM dihydroethedium (DHE), followed by analysis with a FACScan flow cytometer. Data shown are an average of three experiments±s.d.\nA375 or SVR cells were plated in 6 cm dishes. After cells had adhered to the plates, they were treated for 24 h with 10 μM DMSO solutions of (+)-solenopsin A, (−)-solenopsin A, or analogs (S11-S15) at which time the media was aspirated. Cells were washed with 2 mL PBS then treated with 0.05% trypsin/0.53 mM EDTA (Fisher) for 3 min at RT. Cells were collected and then pelleted at 600 g for 2 min. The supernatant was aspirated and the cells were suspended in 10 uM dihydroethidium (DHE) (Life Technologies) and incubated for 10 min in the dark at RT while shaking Following this incubation, cells were kept until counting on a Becton Dickinson FACScan flow cytometer. 10,000 cells were counted and analyzed by FlowJo 7.6.4. Mean values of DHE fluorescence intensity were compared."}, "[1]": {"tested_on": "SVR (murine angiosarcoma) cells", "test": "Proliferation study, SVR cells (Coulter Counter)", "format": "cell-based", "conditions": "10 μM, 24 h, cell count vs DMSO", "excerpt": "(§4) Different analogs of solenopsin were synthesized (FIG. 1) in order to explore their structure-activity relationships. The aliphatic side chains of S14 and S13 are 4 and 8 carbons longer compared to solenopsin, respectively. S11 has an 8-carbon longer side chain, as well as an extra methyl group in the 4-position of the piperidine ring. S15 has an 11-carbon side chain similar to solenopsin, but the first carbon in the side chain is hydroxylated. Also, S15 lacks the methyl group in the 2-position of the piperidine ring. All the analogs together with (−)- and (+)-solenosin A, and the isomeric mixture of the two cis-isomers of solenopsin (S12) were tested, at 10 μM, on two different human melanoma cell lines (A375 and A2058) and one murine angiosarcoma cell line (SVR) (FIG. 2). The A375 and A2058 melanoma cell lines express mutant Braf and the SVR murine angiosarcoma cell line expresses mutant Hras. One important difference between the two human melanoma cell lines is the A2058 is PTEN null, whereas A375 is not.\n(§5) A375 (human melanoma), A2058 (human melanoma), or SVR (murine angiosarcoma) cells were plated at a concentration of 50,000 cells/well. The cells were treated with 10 μM of (−)-solenopsin A, (+)-solenopsin A, or analogs (S11-S15) for 24 hours, at which point cells were counted with a Coulter Counter."}, "[2]": {"tested_on": "A2058 (human melanoma) cells", "test": "Proliferation study, A2058 cells (Coulter Counter)", "format": "cell-based", "conditions": "10 μM, 24 h, cell count vs DMSO", "excerpt": "as §4, §5"}, "[3]": {"tested_on": "A375 (human melanoma) cells", "test": "Proliferation study, A375 cells (Coulter Counter)", "format": "cell-based", "conditions": "10 μM, 24 h, cell count vs DMSO", "description": "50,000 cells/well were plated and treated for 24 h with each compound. The first DMSO bar in each chart serves as control for (+)-solenopsin A, (−)-solenopsin A, and ceramide C2. The second DMSO bar is the control for S11-S15.\nas §4, §5"}},
  "data": [
    {"smiles": "CCCCCCCCCCCCCCCCCCCC1CCCC(C)N1", "note": "(centres unmarked) [Compound S13, 2-Methyl-6-nonadecylpiperidine]", "values": [
      {"measurement": "inhibition of PDK1 activation (Lyn-PARE)", "setting": "PDK1", "result": "some inhibition"},
      {"measurement": "inhibition of Akt activity (AktAR)", "setting": "Akt", "result": "some inhibition"},
      {"measurement": "inhibition of Akt translocation (PH(Akt)-citrine)", "setting": "PH domain of Akt1", "result": "some inhibition"},
      {"measurement": "oxygen consumption rate (OCR) compared to DMSO control", "setting": "UM-SCC1A cells", "result": "slightly reduced OCR"},
      {"measurement": "effect on superoxide levels (DHE fluorescence)", "setting": "A375 cells", "result": "no effect on superoxide levels"},
      {"measurement": "antiproliferative effect", "setting": "[1]", "result": "lower antiproliferative effect than S12"},
      {"measurement": "antiproliferative effect", "setting": "[2]", "result": "lower antiproliferative effect than S12"},
      {"measurement": "antiproliferative effect", "setting": "[3]", "result": "lower antiproliferative effect than S12"}
    ]}
  ]
}
